Test results reported in ChEMBL document CHEMBL4130433, “Acridone-pyrimidine hybrids- design, synthesis, cytotoxicity studies in resistant and sensitive cancer cells and molecular docking studies” (Eur J Med Chem, 2017).

Assays:
MDA-MB-231 [1] = assay: Effect on total AKT protein expression in human MDA-MB-231 cells at antiproliferative IC50 after 48 hrs by Western blot method; format: cell-based; details: mda-mb-231, 48 h
A549 = assay: cells; details: Homo sapiens, A549, 72 h
Description: Antiproliferative activity against human A549 cells after 72 hrs by MTT assay

MDA-MB-231 [2] = assay: Antiproliferative activity against human MDA-MB-231 cells after 72 hrs by MTT assay; format: functional, cell-based; details: MDA-MB-231, 72 h
HeLa = assay: Antiproliferative activity against human HeLa cells after 72 hrs by MTT assay; format: functional, cell-based
MCF7 [3] = assay: Antiproliferative activity against human MCF7 cells after 72 hrs by MTT assay; format: functional, cell-based; details: MCF7, 72 h
[4] = Cytotoxicity against African green monkey Vero cells after 72 hrs by MTT assay; format: cell-based; details: chlorocebus sabaeus
[5] = target: RAC-alpha serine/threonine-protein kinase (Homo sapiens, UniProt P31749); assay: Inhibition of PH domain lacking AKT1 (unknown origin) using Tamara-labeled GRPRTSSFAEG peptide as substrate after 90 mins by fluorescence polarization IMAP assay
MCF7 [6] = assay: Cytotoxicity against human MCF7 cells by MTT assay; format: functional, cell-based
2008 [7] = assay: Antiproliferative activity against human 2008 cells after 72 hrs by MTT assay; format: functional, cell-based; details: Homo sapiens, 2008, 72 h
2008 [8] = assay: Antiproliferative activity against resistant human 2008 cells clone 4 harboring MRP1 after 72 hrs by MTT assay; format: functional, cell-based; details: Homo sapiens, 2008, 72 h
2008 [9] = assay: Antiproliferative activity against resistant human 2008 cells clone 6 harboring MRP1 after 72 hrs by MTT assay; format: functional, cell-based; details: Homo sapiens, 2008, 72 h
SW1573 [10] = assay: Antiproliferative activity against human SW1573 cells after 72 hrs by MTT assay; format: functional, cell-based; details: SW1573, 72 h
SW1573 [11] = assay: Antiproliferative activity against resistant human SW1573 2R 120 cells harboring MRP1 after 72 hrs by MTT assay; format: functional, cell-based; details: SW1573, 72 h
SW1573 [12] = assay: Antiproliferative activity against resistant human SW1573 2R 160 cells harboring P-gp after 72 hrs by MTT assay; format: functional, cell-based; details: SW1573, 72 h
[13] = Antiproliferative activity against human MCF7/MX cells after 72 hrs by MTT assay; format: functional, cell-based
[14] = Antiproliferative activity against human MCF7/DX cells after 72 hrs by MTT assay; format: functional, cell-based
K562 = assay: Cytotoxicity against human K562 cells by MTT assay; format: functional, cell-based

Chain of RAC-alpha serine/threonine-protein kinase (P31749 whole entry, the tested form may be a part): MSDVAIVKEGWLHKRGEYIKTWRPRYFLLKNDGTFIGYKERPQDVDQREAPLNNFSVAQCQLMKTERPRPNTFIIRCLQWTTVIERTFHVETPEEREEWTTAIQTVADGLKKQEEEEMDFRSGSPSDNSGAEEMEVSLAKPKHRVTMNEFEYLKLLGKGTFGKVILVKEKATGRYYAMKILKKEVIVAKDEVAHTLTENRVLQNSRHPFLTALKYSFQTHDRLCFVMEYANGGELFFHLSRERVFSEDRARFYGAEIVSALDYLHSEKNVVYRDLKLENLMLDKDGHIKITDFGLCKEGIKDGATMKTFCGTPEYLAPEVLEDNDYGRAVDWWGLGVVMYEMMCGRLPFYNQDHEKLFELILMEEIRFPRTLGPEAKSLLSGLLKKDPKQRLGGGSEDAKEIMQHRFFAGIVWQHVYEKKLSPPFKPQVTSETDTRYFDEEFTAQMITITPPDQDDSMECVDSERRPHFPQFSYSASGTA

SMILES | IC50 (A549) [µM] | IC50 (MDA-MB-231 [2]) [µM] | IC50 (HeLa) [µM] | IC50 (MCF7 [3]) [µM] | IC50 [5] [µM] | IC50 (SW1573 [10]) [µM] | IC50 (SW1573 [11]) [µM] | IC50 (SW1573 [12]) [µM] | Activity (MDA-MB-231 [1]) | CC50 at 72 h [4] [µM] | IC50 (MCF7 [6]) [µM] | IC50 2008 [7] [µM] | IC50 2008 [8] [µM] | IC50 2008 [9] [µM] | IC50 [13] [µM] | IC50 [14] [µM] | IC50 (K562) [µM]
C#Cc1cccc(Nc2ncnc3cc(OCCOC)c(OCCOC)cc23)c1 [ERLOTINIB] | 21.3 |  |  |  |  |  |  |  |  |  |  |  |  |  |  |  | 
COC(=O)c1c(C)nc(NNC(=O)c2cccc3c(=O)c4ccccc4[nH]c23)nc1-c1ccc(C)cc1 | 40.5 | 23.7 | 76.4 | 45.2 | 0.738 |  |  |  |  | 64.2 |  |  |  |  |  |  | 
COc1ccc(Cn2cc(Cn3c4ccccc4c(=O)c4cc(OC)ccc43)nn2)cc1 |  |  |  |  |  |  |  |  |  |  | 11 |  |  |  |  |  | 
COC(=O)c1c(C)nc(NNC(=O)c2cccc3c(=O)c4ccccc4[nH]c23)nc1-c1ccccc1 | 20.4 | 47.4 | 56.7 | 36.2 | 0.056 |  |  |  |  | 80 |  |  |  |  |  |  | 
CCOC(=O)c1c(C)nc(NNC(=O)c2cccc3c(=O)c4ccccc4[nH]c23)nc1-c1ccc(F)cc1 | > 100 | > 100 | 47.1 | > 100 | 0.176 |  |  |  |  | 58.2 |  |  |  |  |  |  | 
CCOC(=O)c1c(C)nc(NNC(=O)c2cccc3c(=O)c4ccccc4[nH]c23)nc1-c1ccc(C)cc1 | 9.74 | 5.6 | 48.5 | 11.4 | 0.98 |  |  |  |  | 72.3 |  |  |  |  |  |  | 
COC(=O)c1c(C)nc(NNC(=O)c2cccc3c(=O)c4ccccc4[nH]c23)nc1-c1cccc(OC)c1 | 27.2 | 58.3 | 72.6 | 32 | 0.482 | 5 | > 100 | 10 |  | 95.1 |  | 34 | 74 | 72 | 30 | 78 | 
COC(=O)c1c(C)nc(NNC(=O)c2cccc3c(=O)c4ccccc4[nH]c23)nc1-c1ccccc1F | 20.6 | 41.6 | 67.3 | 25.7 | 0.432 |  |  |  |  | 76.1 |  |  |  |  |  |  | 
CCOC(=O)c1c(C)nc(NNC(=O)c2cccc3c(=O)c4ccccc4[nH]c23)nc1-c1ccccc1 | 8.49 | 19.6 | 45.8 | 15.6 | 0.0047 |  |  |  | Non-Toxic | 92.8 |  |  |  |  |  |  | 
COC(=O)c1c(C)nc(NNC(=O)c2cccc3c(=O)c4ccccc4[nH]c23)nc1-c1ccc(F)cc1 | 36.5 | 56.2 | 44.5 | 33 | 0.313 | 75 | > 100 | 62 |  | 78.2 |  | 23 | 24 | 27 | 30 | 45 | 
CCOC(=O)c1c(C)nc(NNC(=O)c2cccc3c(=O)c4ccccc4[nH]c23)nc1CC(C)C | 3.9 | 8.61 | 39.1 | 4.32 | 0.012 |  |  |  | Non-Toxic | 78.2 |  |  |  |  |  |  | 
Cc1cccc2c(=O)c3c(NCc4ccccc4)ccc(C(=O)NCCN(C)C)c3[nH]c12 |  |  |  |  |  |  |  |  |  |  |  |  |  |  |  |  | 0.46

More lines, main results first:

IC50 (A549) [µM] | IC50 (MDA-MB-231 [2]) [µM] | IC50 (HeLa) [µM] | IC50 (MCF7 [3]) [µM] | IC50 [5] [µM] | IC50 (SW1573 [10]) [µM] | IC50 (SW1573 [11]) [µM] | IC50 (SW1573 [12]) [µM] | SMILES | Activity (MDA-MB-231 [1]) | CC50 at 72 h [4] [µM] | IC50 (MCF7 [6]) [µM] | IC50 2008 [7] [µM] | IC50 2008 [8] [µM] | IC50 2008 [9] [µM] | IC50 [13] [µM] | IC50 [14] [µM] | IC50 (K562) [µM]
10.2 |  |  |  |  |  |  |  | COc1cccc2c1C(=O)c1c(O)c3c(c(O)c1C2=O)C[C@@](O)(C(=O)CO)C[C@@H]3O[C@H]1C[C@H](N)[C@H](O)[C@H](C)O1 [DOXORUBICIN] | Non-Toxic |  |  |  |  |  |  |  | 
3.26 | 7.12 | 74.5 | 10.5 | 0.00172 |  |  |  | CCOC(=O)c1c(C)nc(NNC(=O)c2cccc3c(=O)c4ccccc4[nH]c23)nc1-c1ccc(OC)cc1 | Non-Toxic | 82.3 |  |  |  |  |  |  | 
41.7 | 47.3 | 57.5 | 26 | 0.115 | 45 | 38 | 62 | CCOC(=O)c1c(C)nc(NNC(=O)c2cccc3c(=O)c4ccccc4[nH]c23)nc1-c1ccc(OC)c(OC)c1 |  | 84.3 |  | 15 | 25 | 19 | 38 | 30 | 
44.8 | 74.5 | 37.4 | 52.1 | 0.64 |  |  |  | COC(=O)c1c(C)nc(NNC(=O)c2cccc3c(=O)c4ccccc4[nH]c23)nc1-c1ccc(OC)cc1 |  | 86.2 |  |  |  |  |  |  | 
3.12 | 6.28 | 52.6 | 7.3 | 0.0082 |  |  |  | CCOC(=O)c1c(C)nc(NNC(=O)c2cccc3c(=O)c4ccccc4[nH]c23)nc1-c1ccccc1F | Non-Toxic | 61.3 |  |  |  |  |  |  | 
> 100 | > 100 | > 100 | > 100 | 0.251 |  |  |  | CCOC(=O)c1c(C)nc(NNC(=O)c2cccc3c(=O)c4ccccc4[nH]c23)nc1-c1cccc(OC)c1 |  | 64.1 |  |  |  |  |  |  | 
